Reference: patent publication US20050074844A1, “Methods for identifying markers of antimicrobial compounds” (priority 2002, published 2005)
In brackets after ≈: the same amount, converted by molar mass. Where a SMILES comes first, the peptide text is derived from it.

What was measured:
[1] = system: Bacillus subtilis BGSC1A2; assay: microbe, parasite or virus in culture
Protocol: Microbroth dilution assays were performed as described in NCCLS M7-A5 (Vol. 20, No. 2). The assay was performed in a sterile 96 well plate, and the total volume per well was 100 μl. […] The inoculum was prepared by culturing Bacillus subtilis BGSC1A2 overnight in MHB medium at 35° C. with shaking at 200 rpm. The following day 0.5 ml of the overnight culture was used to inoculate MHB medium to obtain a culture in logarithmic phase growth as described in NCCLS M7-A5 (Vol. 20, No. 2) and M26-A (Vol. 19, No. 18). The actual colony forming units per well was confirmed by plating onto TSA or LB agar. Two wells were inoculated for a given concentration. The plates were incubated for 16 to 20 hours at 35° C. The MIC was defined as that concentration of antibiotic resulting in no visible growth of the organism.

[2] = system: Bacillus subtilis strain BGSC1A2; assay: Growth curve (optical density at 600 nm) of shake flask cultures treated with sub-inhibitory antibiotic concentrations; assay type: cell-based; conditions: for growth rate as measured by optical density at 600 nm: all sub-inhibitory concentrations tested (Table 3), versus untreated cultures
Protocol: Bacillus subtilis strain BGSC1A2 was streaked onto a LB agar plate and incubated overnight at 37° C. The cultured plate was stored at room temperature for up to one week. Fifty ml of MHB medium in a 250 ml flask was inoculated with one colony from the plate. The culture was incubated overnight at 37° C. and 200 rpm.
A 30.7 ml sample of the overnight culture was used to inoculate 3.6 liters of MHB medium pre-warmed at 37° C. After mixing the culture well, 600 ml aliquots were removed and placed into each of six 2.8 liter baffled shake flasks. A 1 ml sample of each flask was taken for optical density measurement at 600 nm, and the shake flasks were incubated at 37° C. and 200 rpm. One ml samples were taken from each flask every 30 minutes until the OD600 reached 0.2. At this point, which was designated time zero, 100 ml samples from each shake flask were taken, and 50 ml aliquots were placed in each of two 50 ml centrifuge tubes. In addition, 1.1 ml aliquots were taken from each flask with 1 ml used for an optical density measurement at 600 nm and 50 μl of each was placed in a microfuge tube at 4° C. The 50 ml samples were processed immediately by centrifugation at 4000 rpm at 4° C. for 7 minutes, and after centrifugation the supernatant was decanted being careful not to disturb the pellet which was immediately placed at −80° C. for total RNA isolation at a later time.
(§1) At time zero, different sub-inhibitory concentrations (0.1-1×MIC) of a given antibiotic were added to three of the shake flasks (Table 2) and the other three shake flasks were untreated. The shake flasks were incubated at 37° C. and 200 rpm. At times 5, 15, 30 and 60 minutes after antibiotic addition, 100 ml and 1.1 ml samples were taken from each shake flask and processed as described above. After the 60 minute time point, 1.1 ml aliquots from each shake flask were taken every hour for four hours for optical density and cell viability measurements.

[3] = system: Bacillus subtilis strain BGSC1A2; assay: Cell viability (colony forming units per ml) of cultures treated with sub-inhibitory antibiotic concentrations; assay type: cell-based; conditions: for colony forming units or viability: all sub-inhibitory concentrations tested (Table 3), versus untreated cultures
Protocol: as §1, with “At time zero, different sub-inhibitory concentrations (0.1-1×MIC) of a given antibiotic were added to three of the shake flasks (Table 2) and the other three shake flasks were untreated.” left out
Cell viability was determined on all the samples by determining colony forming units per ml. Samples collected were diluted in MHB to obtain 10 to 500 colonies per plate as follows: samples collected at t=0 were diluted at 1:100,000; t=5 minutes, dilution was 1:150,000; t=15 minutes, dilution was 1:200,000; t=30 minutes, dilution was 1:250,000; t=1 hour, dilution was 1:300,000; t=1.5 hours, dilution was 1:400,000; t=2.5 hours, dilution was 1:800,000; and t=3.5 hours, dilution was 1:1,000,000. These dilutions factors can be changed as indicated by the response to the antibiotic being tested. For each diluted sample 20 μl and 40 μl aliquots were spread onto each of two pre-warmed LB agar plates, which were incubated overnight at 37° C. The number of colonies on each plate was counted to determine the colony forming units per ml of each sample.

[4] = system: Bacillus subtilis strain BGSC1A2; assay: Growth curve (optical density at 600 nm) of shake flask cultures treated with sub-inhibitory antibiotic concentrations; assay type: cell-based; conditions: 0.01 and 0.02 x MIC (0.0025 and 0.005 μg/ml)

`CC(=O)OCC1=C(C(=O)O)N2C(=O)[C@@H](NC(=O)Cc3cccs3)[C@H]2SC1` [cephalothin] was tested, and the MIC ([1]; Bacillus subtilis, BGSC1A2) was 0.0156 to 0.0625 µg/mL (≈ 0.0393 to 0.158 µM), the “growth rate as measured by optical density” value ([2]; 0.00156 μg/ml (0.1 x MIC)) was “very little effect, if any” and the “growth rate as measured by optical density” value ([2]; 0.0078 μg/ml (0.50 x MIC)) was “moderate decrease”. For the same molecule, the “growth rate as measured by optical density” value ([2]; 0.0156 μg/ml (1.0 x MIC)) was “large” and the “colony forming units or viability” value [3] was “decrease in colony forming units or viability”.
For `O=C(N[C@H](CO)[C@H](O)c1ccc([N+](=O)[O-])cc1)C(Cl)Cl` [chloramphenicol], the MIC ([1]; Bacillus subtilis, BGSC1A2) was 2 to 4 µg/mL (≈ 6.19 to 12.4 µM).
For `O=C(O)c1cn(C2CC2)c2cc(N3CCNCC3)c(F)cc2c1=O` [ciprofloxacin], the “colony forming units or viability” value [3] was “decrease in colony forming units or viability”.
With `CC[C@H]1OC(=O)[C@H](C)[C@@H](O[C@H]2C[C@@](C)(OC)[C@@H](O)[C@H](C)O2)[C@H](C)[C@@H](O[C@@H]2O[C@H](C)C[C@H](N(C)C)[C@H]2O)[C@](C)(O)C[C@@H](C)C(=O)[C@H](C)[C@@H](O)[C@]1(C)O` [erythromycin] the MIC ([1]; Bacillus subtilis, BGSC1A2) was 0.125 to 0.25 µg/mL (≈ 0.17 to 0.341 µM), the “growth rate as measured by optical density at 600 nm” value (“growth rate as measured … at 600 nm” below) [2] was “decrease in growth rate that was dose dependent” and the “colony forming units or viability” value [3] was “decrease in colony forming units or viability”.
Molecule `CC(C)C[C@@H](NC(=O)[C@H](C)NC(=O)CNC(=O)[C@@H](NC=O)C(C)C)C(=O)N[C@@H](C)C(=O)N[C@@H](C(=O)N[C@H](C(=O)N[C@@H](C(=O)N[C@@H](Cc1c[nH]c2ccccc12)C(=O)N[C@H](CC(C)C)C(=O)N[C@@H](Cc1c[nH]c2ccccc12)C(=O)N[C@H](CC(C)C)C(=O)N[C@@H](Cc1c[nH]c2ccccc12)C(=O)N[C@H](CC(C)C)C(=O)N[C@@H](Cc1c[nH]c2ccccc12)C(=O)NCCO)C(C)C)C(C)C)C(C)C` [gramicidin A] (HELM PEPTIDE1{[O=C[*:2]].V.G.A.[dL].A.[dV].V.[dV].W.[dL].W.[dL].W.[dL].W.[OCCN[*:1]]}$$$$V2.0; N-terminus and C-terminus assumed) has an MIC ([1]; BGSC1A2) of 8.0 µg/mL (≈ 4.25 µM).
In the case of `CCn1cc(C(=O)O)c(=O)c2ccc(C)nc21` [nalidixic acid], the MIC ([1]; Bacillus subtilis, BGSC1A2) is reported as 4 µg/mL (≈ 17.2 µM).
With `CCn1cc(C(=O)O)c(=O)c2cc(F)c(N3CCNCC3)cc21` [norfloxacin] the MIC ([1]; Bacillus subtilis, BGSC1A2) was 0.5 µg/mL (≈ 1.57 µM), the “growth rate as measured … at 600 nm” value [2] was “very little effect, if any” and the “colony forming units or viability” value [3] was “decrease in colony forming units or viability”.
`CO[C@@H]1[C@@H](OC(N)=O)[C@@H](O)[C@H](Oc2ccc3c(O)c(NC(=O)c4ccc(O)c(CC=C(C)C)c4)c(=O)oc3c2C)OC1(C)C` [novobiocin] gave an MIC ([1]; Bacillus subtilis, BGSC1A2) of 2 µg/mL (≈ 3.26 µM).
For `CO[C@H]1/C=C/O[C@@]2(C)Oc3c(C)c(O)c4c(O)c(c(/C=N/N5CCN(C)CC5)c(O)c4c3C2=O)NC(=O)/C(C)=C\C=C\[C@H](C)[C@H](O)[C@@H](C)[C@@H](O)[C@@H](C)[C@H](OC(C)=O)[C@@H]1C` [rifampin], the MIC ([1]; Bacillus subtilis, BGSC1A2) was 0.25 to 0.5 µg/mL (≈ 0.304 to 0.608 µM), the colony forming units ([3]; 0.01 or 0.02 x MIC (0.0025 and 0.005 μg/ml)) was “no effect on colony forming units” and the “growth rate as measured by optical density” value [4] was “very little effect if any”.
For `[H]/N=C(/N)N[C@H]1[C@H](O)[C@@H](O)[C@H](O[C@@H]2O[C@@H](C)[C@](O)(C=O)[C@H]2O[C@@H]2O[C@@H](CO)[C@H](O)[C@@H](O)[C@@H]2NC)[C@@H](N/C(N)=N\[H])[C@@H]1O` [streptomycin], the MIC ([1]; Bacillus subtilis, BGSC1A2) was 4 to 8 µg/mL (≈ 6.88 to 13.8 µM), the “growth rate as measured by optical density” value ([2]; 0.8 μg/ml (0.1 x MIC)) was “growth rate similar to the untreated cultures” and the “growth rate as measured by optical density” value ([2]; 4.0 μg/ml (0.50 x MIC)) was “moderate decrease in growth rate”. The “growth rate as measured by optical density” value ([2]; 8.0 μg/ml (1.0 x MIC)) was “large” and the “colony forming units or viability” value [3] was “decrease in colony forming units or viability”.
For `COc1cc(Cc2cnc(N)nc2N)cc(OC)c1OC` [trimethoprim], the MIC ([1]; Bacillus subtilis, BGSC1A2) was 0.25 µg/mL (≈ 0.861 µM), the “growth rate as measured … at 600 nm” value [2] was “did not have an effect on growth rate” and the “colony forming units or viability” value [3] was “did not lead to a change in colony forming units or viability”.
For `CN[C@H](CC(C)C)C(=O)N[C@H]1C(=O)N[C@@H](CC(N)=O)C(=O)N[C@H]2C(=O)N[C@H]3C(=O)N[C@H](C(=O)N[C@H](C(=O)O)c4cc(O)cc(O)c4-c4cc3ccc4O)[C@H](O)c3ccc(c(Cl)c3)Oc3cc2cc(c3O[C@@H]2O[C@H](CO)[C@@H](O)[C@H](O)[C@H]2O[C@H]2C[C@](C)(N)[C@H](O)[C@H](C)O2)Oc2ccc(cc2Cl)[C@H]1O` [vancomycin], the MIC ([1]; Bacillus subtilis, BGSC1A2) was 0.125 to 0.25 µg/mL (≈ 0.0863 to 0.173 µM), the “growth rate as measured … at 600 nm” value [2] was “very little effect, if any” and the “colony forming units or viability” value [3] was “no effect on viability”.
For gentamicin, the MIC ([1]; no visible growth after 16 to 20 hours at 35° C., MHB medium) was 0.125 to 0.25 µg/mL, the “growth rate as measured … at 600 nm” value [2] was “very little effect if any” and the “colony forming units or viability” value [3] was “decrease in colony forming units or viability”.
In the case of munumbicin B, the “colony forming units or viability” value [3] is reported as “decrease in colony forming units or viability”.
